Reference: patent US12723063B2, “GIPR-agonist compounds” (Eli Lilly and Company, priority 2019, dated 2026)
*1 amine or outer side, *2 acyl side, *3 side chain or, on linkers, in order; H or OH if unused. Where a SMILES comes first, the peptide text is derived from it. Side-chain parts run from the residue outwards. [ ]: non-standard residue; d: D form. The star is where a group is joined. C20 diacid = O=C(O)CCCCCCCCCCCCCCCCCCC(=O)*; C18 diacid = O=C(O)CCCCCCCCCCCCCCCCC(=O)*; γGlu = O=C(O)[C@H](CCC(=O)[*:2])N[*:1]; 4Pal = N[C@@H](Cc1ccncc1)C(=O)O; αMeL = CC(C)C[C@](C)(N)C(=O)O; Orn = NCCC[C@H](N)C(=O)O; AEEA = NCCOCCOCC(=O)O; Aib = CC(C)(N)C(=O)O

Assays:
human GIPR = biological target: T1, human GIPR (Homo sapiens, UniProt P48546); assay: [125I]-GIP binding, SPA with WGA beads, 0.1% bacitracin; details: geometric mean, read-out: hGIPR Ki
T1 construct: expressed in transfected cells; crude membranes
T1 sequence (P48546 22-466): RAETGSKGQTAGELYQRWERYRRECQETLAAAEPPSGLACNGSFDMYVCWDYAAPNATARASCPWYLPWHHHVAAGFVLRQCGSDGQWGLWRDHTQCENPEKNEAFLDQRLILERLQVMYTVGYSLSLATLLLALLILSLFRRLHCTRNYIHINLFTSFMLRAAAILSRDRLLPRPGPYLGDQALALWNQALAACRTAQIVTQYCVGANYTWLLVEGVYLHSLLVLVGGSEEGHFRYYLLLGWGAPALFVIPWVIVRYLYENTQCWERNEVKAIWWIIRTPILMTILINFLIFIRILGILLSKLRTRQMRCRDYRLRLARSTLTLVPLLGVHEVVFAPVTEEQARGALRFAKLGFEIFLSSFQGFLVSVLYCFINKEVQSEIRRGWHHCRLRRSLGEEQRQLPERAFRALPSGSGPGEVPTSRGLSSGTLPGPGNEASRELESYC
Method in brief: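 Ki values are geometric means (SEM, n independent days), derived from four-parameter nonlinear regression of IC50. Membranes came from hGIPR-expressing CHO cells.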

human GcgR = biological target: T2, human GcgR (Homo sapiens, UniProt P47871); assay: [125I]-Glucagon binding, SPA with WGA beads, 0.1% bacitracin; details: geometric mean, read-out: hGcgR Ki
T2 construct: expressed in transfected cells; crude membranes
Method in brief: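 SPA competition binding with WGA beads on crude membranes from HEK293 cells stably expressing hGcgR. Buffer: 25 mM HEPES pH 7.4, 2.5 mM CaCl2, 1 mM MgCl2, 0.1% bacitracin, 0.003% Tween-20; 10-point 3-fold dilutions, NSB with 1 μM Gcg.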

human GLP-1R = biological target: T3, human GLP-1R (Homo sapiens, UniProt P43220); assay: [125I]-GLP-1 binding, SPA with WGA beads, 0.1% bacitracin; details: geometric mean, read-out: hGLP1R Ki
T3 construct: expressed in transfected cells; crude membranes
Method in brief: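 Binding buffer was 25 mM HEPES pH 7.4 with 2.5 mM CaCl2, 1 mM MgCl2, 0.1% (w/v) bacitracin, 0.003% Tween-20 and EDTA-free protease inhibitors. Four-parameter regression gave IC50, converted to Ki (geometric mean, SEM, n independent days).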

T2 sequence (P47871 26-477): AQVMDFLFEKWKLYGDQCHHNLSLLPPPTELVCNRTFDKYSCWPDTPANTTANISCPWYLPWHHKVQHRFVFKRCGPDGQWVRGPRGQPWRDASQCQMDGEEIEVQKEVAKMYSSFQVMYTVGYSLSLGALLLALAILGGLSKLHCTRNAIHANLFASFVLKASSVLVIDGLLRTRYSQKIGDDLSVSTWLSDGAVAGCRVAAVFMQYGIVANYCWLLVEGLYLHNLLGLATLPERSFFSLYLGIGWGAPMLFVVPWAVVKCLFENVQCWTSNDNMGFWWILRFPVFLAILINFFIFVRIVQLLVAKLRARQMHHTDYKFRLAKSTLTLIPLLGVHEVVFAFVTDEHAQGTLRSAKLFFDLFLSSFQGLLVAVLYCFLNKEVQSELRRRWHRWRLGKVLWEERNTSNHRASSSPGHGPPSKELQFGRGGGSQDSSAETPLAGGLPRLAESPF
T3 sequence (P43220 24-463): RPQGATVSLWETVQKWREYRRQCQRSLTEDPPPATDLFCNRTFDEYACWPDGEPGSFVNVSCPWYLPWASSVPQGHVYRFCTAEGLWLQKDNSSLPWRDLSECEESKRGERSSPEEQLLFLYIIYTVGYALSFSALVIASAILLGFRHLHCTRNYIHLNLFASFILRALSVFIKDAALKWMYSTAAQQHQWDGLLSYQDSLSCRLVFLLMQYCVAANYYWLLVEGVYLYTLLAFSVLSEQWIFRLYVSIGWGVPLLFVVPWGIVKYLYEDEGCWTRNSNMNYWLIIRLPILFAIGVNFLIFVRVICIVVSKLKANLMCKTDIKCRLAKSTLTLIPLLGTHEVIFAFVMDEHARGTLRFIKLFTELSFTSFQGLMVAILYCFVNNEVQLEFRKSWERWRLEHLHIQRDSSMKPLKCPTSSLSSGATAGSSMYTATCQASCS

Row | SMILES | Ki (human GIPR) | Ki (human GcgR) | Ki (human GLP-1R)
1 | CC[C@H](C)[C@H](NC(=O)[C@H](Cc1ccccc1)NC(=O)[C@@H](NC(=O)CNC(=O)[C@H](CCC(=O)O)NC(=O)C(C)(C)NC(=O)[C@@H](N)Cc1ccc(O)cc1)[C@@H](C)O)C(=O)N[C@@H](CO)C(=O)N[C@@H](CC(=O)O)C(=O)N[C@@H](Cc1ccc(O)cc1)C(=O)N[C@@H](CO)C(=O)N[C@H](C(=O)N[C@@](C)(CC(C)C)C(=O)N[C@@H](CC(C)C)C(=O)N[C@@H](CC(=O)O)C(=O)N[C@@H](CCCN)C(=O)N[C@@H](CCCCNC(=O)COCCOCCNC(=O)COCCOCCNC(=O)CC[C@H](NC(=O)CCCCCCCCCCCCCCCCCCC(=O)O)C(=O)O)C(=O)N[C@@H](Cc1c[nH]cn1)C(=O)N[C@@H](CCC(N)=O)C(=O)NC(C)(C)C(=O)N[C@@H](CC(=O)O)C(=O)N[C@@H](Cc1ccccc1)C(=O)N[C@H](C(=O)N[C@@H](CCC(=O)O)C(=O)N[C@@H](Cc1ccncc1)C(=O)N[C@@H](CC(C)C)C(=O)N[C@@H](CC(C)C)C(=O)N[C@@H](CCC(=O)O)C(=O)NCC(=O)NCC(=O)N1CCC[C@H]1C(=O)N[C@@H](CO)C(=O)N[C@@H](CO)C(=O)NCC(=O)N[C@@H](C)C(=O)N1CCC[C@H]1C(=O)N1CCC[C@H]1C(=O)N1CCC[C@H]1C(=O)N[C@@H](CO)C(N)=O)C(C)C)[C@@H](C)CC [Example 82] (H-Y[Aib]EGTFISDYSI[αMeL]LD[Orn]K([AEEA-AEEA-γGlu-C20 diacid])HQ[Aib]DFVE[4Pal]LLEGGPSSGAPPPS-NH2) | 0.0617 nM | 305 nM | 388 nM
2 | CC[C@H](C)[C@H](NC(=O)[C@H](CC(C)C)NC(=O)[C@@H](NC(=O)CNC(=O)[C@H](CCC(=O)O)NC(=O)C(C)(C)NC(=O)[C@@H](N)Cc1ccc(O)cc1)[C@@H](C)O)C(=O)N[C@@H](CO)C(=O)N[C@@H](CC(=O)O)C(=O)N[C@@H](Cc1ccc(O)cc1)C(=O)N[C@@H](CO)C(=O)N[C@H](C(=O)N[C@@](C)(CC(C)C)C(=O)N[C@@H](CC(C)C)C(=O)N[C@@H](CC(=O)O)C(=O)N[C@@H](CCCCN)C(=O)N[C@@H](CCCCNC(=O)COCCOCCNC(=O)COCCOCCNC(=O)CC[C@H](NC(=O)CCCCCCCCCCCCCCCCCCC(=O)O)C(=O)O)C(=O)N[C@@H](Cc1c[nH]cn1)C(=O)N[C@@H](CCC(N)=O)C(=O)NC(C)(C)C(=O)N[C@@H](CC(=O)O)C(=O)N[C@@H](Cc1ccccc1)C(=O)N[C@H](C(=O)N[C@@H](CCC(=O)O)C(=O)N[C@@H](Cc1ccncc1)C(=O)N[C@@H](CC(C)C)C(=O)N[C@@H](CC(C)C)C(=O)N[C@@H](CCC(=O)O)C(=O)N[C@@H](C)C(=O)NCC(=O)N1CCC[C@H]1C(=O)N[C@@H](CO)C(=O)N[C@@H](CO)C(=O)NCC(=O)N[C@@H](C)C(=O)N1CCC[C@H]1C(=O)N1CCC[C@H]1C(=O)N1CCC[C@H]1C(=O)N[C@@H](CO)C(N)=O)C(C)C)[C@@H](C)CC [Example 89] (H-Y[Aib]EGTLISDYSI[αMeL]LDKK([AEEA-AEEA-γGlu-C20 diacid])HQ[Aib]DFVE[4Pal]LLEAGPSSGAPPPS-NH2) | 0.072 nM | 611 nM | 294 nM
3 | CC[C@H](C)[C@H](NC(=O)[C@H](CO)NC(=O)[C@H](Cc1ccc(O)cc1)NC(=O)[C@H](CC(=O)O)NC(=O)[C@H](CO)NC(=O)[C@@H](NC(=O)[C@H](Cc1ccccc1)NC(=O)[C@@H](NC(=O)CNC(=O)[C@H](CCC(=O)O)NC(=O)[C@@H](C)NC(=O)[C@@H](N)Cc1ccc(O)cc1)[C@@H](C)O)[C@@H](C)CC)C(=O)N[C@@H](CC(C)C)C(=O)N[C@@H](CC(C)C)C(=O)N[C@@H](CC(=O)O)C(=O)N[C@@H](CCCCN)C(=O)N[C@@H](CCCCNC(=O)COCCOCCNC(=O)COCCOCCNC(=O)CC[C@H](NC(=O)CCCCCCCCCCCCCCCCC(=O)O)C(=O)O)C(=O)N[C@@H](C)C(=O)N[C@@H](CCC(N)=O)C(=O)NC(C)(C)C(=O)N[C@@H](CCC(=O)O)C(=O)N[C@@H](Cc1ccccc1)C(=O)N[C@H](C(=O)N[C@@H](CC(N)=O)C(=O)N[C@@H](Cc1c[nH]c2ccccc12)C(=O)N[C@@H](CC(C)C)C(=O)N[C@@H](CC(C)C)C(=O)N[C@@H](C)C(=O)N[C@@H](CCC(N)=O)C(=O)NCC(=O)N1CCC[C@H]1C(=O)N[C@@H](CO)C(=O)N[C@@H](CO)C(=O)NCC(=O)N[C@@H](C)C(=O)N1CCC[C@H]1C(=O)N1CCC[C@H]1C(=O)N1CCC[C@H]1C(=O)N[C@@H](CO)C(N)=O)C(C)C [Example 20] (H-Y[dA]EGTFISDYSILLDKK([AEEA-AEEA-γGlu-C18 diacid])AQ[Aib]EFVNWLLAQGPSSGAPPPS-NH2) | 0.0477 nM | 216 nM | 79.8 nM
4 | CC[C@H](C)[C@H](NC(=O)[C@H](CCCN)NC(=O)[C@H](CC(=O)O)NC(=O)[C@H](CC(C)C)NC(=O)[C@](C)(CC(C)C)NC(=O)[C@@H](NC(=O)[C@H](CO)NC(=O)[C@H](Cc1ccc(O)cc1)NC(=O)[C@H](CC(=O)O)NC(=O)[C@H](CO)NC(=O)[C@@H](NC(=O)[C@H](Cc1ccccc1)NC(=O)[C@@H](NC(=O)CNC(=O)[C@H](CCC(=O)O)NC(=O)C(C)(C)NC(=O)[C@@H](N)Cc1ccc(O)cc1)[C@@H](C)O)[C@@H](C)CC)[C@@H](C)CC)C(=O)N[C@@H](Cc1c[nH]cn1)C(=O)N[C@@H](CCC(N)=O)C(=O)NC(C)(C)C(=O)N[C@@H](CC(=O)O)C(=O)N[C@@H](Cc1ccccc1)C(=O)N[C@H](C(=O)N[C@H](CCC(=O)O)C(=O)N[C@@H](Cc1ccc(O)cc1)C(=O)N[C@@H](CCCCNC(=O)COCCOCCNC(=O)COCCOCCNC(=O)CC[C@H](NC(=O)CCCCCCCCCCCCCCCCCCC(=O)O)C(=O)O)C(=O)N[C@@H](CC(C)C)C(=O)N[C@@H](CCC(=O)O)C(=O)NCC(=O)NCC(=O)N1CCC[C@H]1C(=O)N[C@@H](CO)C(=O)N[C@@H](CO)C(=O)NCC(=O)N[C@@H](C)C(=O)N1CCC[C@H]1C(=O)N1CCC[C@H]1C(=O)N1CCC[C@H]1C(=O)N[C@@H](CO)C(N)=O)C(C)C [Example 101] | 0.139 nM | > 961 nM | > 913 nM
5 | CC[C@H](C)[C@H](NC(=O)[C@H](CO)NC(=O)[C@H](Cc1ccc(O)cc1)NC(=O)[C@H](CC(=O)O)NC(=O)[C@H](CO)NC(=O)[C@@H](NC(=O)[C@H](Cc1ccccc1)NC(=O)[C@@H](NC(=O)CNC(=O)[C@H](CCC(=O)O)NC(=O)[C@@H](C)NC(=O)[C@@H](N)Cc1ccc(O)cc1)[C@@H](C)O)[C@@H](C)CC)C(=O)N[C@@H](CC(C)C)C(=O)N[C@@H](CC(C)C)C(=O)N[C@@H](CC(=O)O)C(=O)N[C@@H](CCCCN)C(=O)N[C@@H](CCCCNC(=O)COCCOCCNC(=O)COCCOCCNC(=O)CC[C@H](NC(=O)CCCCCCCCCCCCCCCCCCC(=O)O)C(=O)O)C(=O)N[C@@H](Cc1c[nH]cn1)C(=O)N[C@@H](CCC(N)=O)C(=O)N[C@@H](CCC(N)=O)C(=O)N[C@@H](CCC(=O)O)C(=O)N[C@@H](Cc1ccccc1)C(=O)N[C@H](C(=O)N[C@@H](CC(N)=O)C(=O)N[C@@H](Cc1c[nH]c2ccccc12)C(=O)N[C@@H](CC(C)C)C(=O)N[C@@H](CC(C)C)C(=O)N[C@@H](C)C(=O)N[C@@H](CCC(N)=O)C(=O)NCC(=O)N1CCC[C@H]1C(=O)N[C@@H](CO)C(=O)N[C@@H](CO)C(=O)NCC(=O)N[C@@H](C)C(=O)N1CCC[C@H]1C(=O)N1CCC[C@H]1C(=O)N1CCC[C@H]1C(=O)N[C@@H](CO)C(N)=O)C(C)C [Example 13] (H-Y[dA]EGTFISDYSILLDKK([AEEA-AEEA-γGlu-C20 diacid])HQQEFVNWLLAQGPSSGAPPPS-NH2) | 0.237 nM | > 230 nM | > 213 nM
6 | CC[C@H](C)[C@H](NC(=O)[C@H](CCCN)NC(=O)[C@H](CC(=O)O)NC(=O)[C@H](CC(C)C)NC(=O)[C@](C)(CC(C)C)NC(=O)[C@@H](NC(=O)[C@H](CO)NC(=O)[C@H](Cc1ccc(O)cc1)NC(=O)[C@H](CC(=O)O)NC(=O)[C@H](CO)NC(=O)[C@@H](NC(=O)[C@H](Cc1ccccc1)NC(=O)[C@@H](NC(=O)CNC(=O)[C@H](CCC(=O)O)NC(=O)C(C)(C)NC(=O)[C@@H](N)Cc1ccc(O)cc1)[C@@H](C)O)[C@@H](C)CC)[C@@H](C)CC)C(=O)N[C@@H](Cc1c[nH]cn1)C(=O)N[C@@H](CCC(N)=O)C(=O)NC(C)(C)C(=O)N[C@@H](CC(=O)O)C(=O)N[C@@H](Cc1ccccc1)C(=O)N[C@H](C(=O)N[C@@H](CCC(=O)O)C(=O)N[C@@H](Cc1ccncc1)C(=O)N[C@@H](CCCCNC(=O)COCCOCCNC(=O)COCCOCCNC(=O)CC[C@H](NC(=O)CCCCCCCCCCCCCCCCCCC(=O)O)C(=O)O)C(=O)N[C@@H](CC(C)C)C(=O)N[C@@H](CCC(=O)O)C(=O)NCC(=O)NCC(=O)N1CCC[C@H]1C(=O)N[C@@H](CO)C(=O)N[C@@H](CO)C(=O)NCC(=O)N[C@@H](C)C(=O)N1CCC[C@H]1C(=O)N1CCC[C@H]1C(=O)N1CCC[C@H]1C(=O)N[C@@H](CO)C(N)=O)C(C)C [Example 108] (H-Y[Aib]EGTFISDYSI[αMeL]LD[Orn]IHQ[Aib]DFVE[4Pal]K([AEEA-AEEA-γGlu-C20 diacid])LEGGPSSGAPPPS-NH2) | 0.134 nM | > 960 nM | > 910 nM
